Measured values from patent US7091229B2, “Tricyclic lactam and sultam derivatives and their use as histone deacetylase inhibitors” (Hoffman-La Roche Inc., priority 2001, dated 2006).

Tested on: HDAC
Assay: HDAC inhibition assay using an aminocoumarin derivative of an omega-acetylated lysine as substrate
Format: biochemical
Conditions: compound concentration 10 nM
Method: To determine the HDAC inhibitory properties of the compounds of the invention an assay was performed using an aminocoumarin derivative of an omega-acetylated lysine as substrate for the enzyme. This assay has been described in detail in the literature (Nucleic Acid Research 1999, 27, 2057–2058. Using the protocol described therein, the inhibitory effect of representative compounds was determined at a concentration of 10 nM. The observed inhibition rates for selected compounds are shown in Table 1: […]

| Structure (SMILES) | Inhibitory effect at 10 nM in % |
| --- | --- |
| O=C(CCCCCCCN1c2cccc3cccc(c23)S1(=O)=O)NO [Example 1, 8-(1,1-dioxo-2H-naphtho[1,8-cd]isothiazol-2-yl)-octanoic acid hydroxyamide] | 64% |
| O=C(CCCCCCN1c2cccc3cccc(c23)S1(=O)=O)NO [Example 2, 7-(1,1-dioxo-2H-naphtho[1,8-cd]isothiazol-2-yl)-heptanoic acid hydroxyamide] | 90% |
| O=C(CCCCCCCN1C(=O)c2cccc3cccc1c23)NO [Example 3, 8-(2-oxo-2H-benzo[cd]indol-1-yl)-octanoic acid hydroxyamide] | 82% |
